Results on three molecules are retold here after PMC11091976, “Shorter Peptide Nucleic Acid Probes Improve Affibody-Mediated Peptide Nucleic Acid-Based Pretargeting” (ACS Pharmacology & Translational Science, 2024).

In general, Kd refers to the equilibrium constant for the complex coming apart. Low readings indicate higher affinity, high ones lower affinity.

Where two headings read alike, the source gives them in different places. Marks after values point to notes of the source that are not given here.

Data set [1] is classed as physicochemical. As to the method: Table 4 summarizes the radiochemical yield (RCY), purity, and stability test results for all ^177Lu-labeled probes in this study. […] Such radiolabeling yield necessitated purification to achieve the requisite radiochemical purity of over 95%. Purification was conducted using a NAP-5 column, eluted with 1% BSA in PBS, resulting in radiochemical purities of 99 ± 1.7% for [^177Lu]Lu-Z-HP9 and 98.5 ± 2.2% for [^177Lu]Lu-Z-HP12, respectively. […] Thus, it was essential that the label was stable, and the compound was pure. […] The RCY for the secondary probes exceeded 97%, and consequently, further purification was deemed unnecessary for in vitro and in vivo studies. Importantly, all probes labeled with ^177Lu remained stable in the presence of an excess amount of EDTA and in PBS as control after incubation at 37 °C for 1 h.
Radiolabeling of primary and secondary probes with ^177Lu was performed using a previously described method.[29] Briefly, 100 μL of 0.2 M of NH4Ac, pH 5.5 was added to 30 μg of the probe (100 μL of 0.3 mg/mL stock in NH4Ac) to provide right pH for the labeling. The mixture was heated at 95 °C for 10 min, followed by sonication for 5 min, and reheating at 95 °C for 10 min to ensure complete dissolving. […] RCY was then analyzed using iTLC developed with 0.2 M citric acid, pH 2.0. […] Samples were run in triplicates and analyzed by radio-iTLC.

For data set [2] the following is noted: cited from earlier work. On the procedure:
Table 4 ^177Lu-Labeling of PNA-Based Probes and In Vitro Stability | column: stability in PBS, 37 °C, 1 h; stability (×500 EDTA), 37 °C, 1 h

In data set [3] the target is Z-HP15. The data set is described as follows: SPR off-rate screening (single-cycle kinetics), immobilized Z-HP15. The class given is binding. As to conditions: primary probe HP15 (immobilized Z-HP15), 25 °C, PBS-T pH 7.4, 120 nM HP16/HP20 or 362 nM HP21/HP19, dissociation 150 min, 1:1 model, duplicates. On the procedure:
The stability of new pretargeting probe combinations was assessed using SPR, and duplex melting temperatures were measured with UV–vis spectroscopy. In SPR, a high concentration of the secondary probe was injected over immobilized primary agents, and the dissociation of the hybridized complexes was monitored over 150 min (see Figures 3A, S22, and Table 2).
(§1) We utilized SPR on a Biacore T200 instrument (Cytiva) to examine how secondary PNA probes (6-mer HP19, 7-mer HP21, 8-mer HP20, and 9-mer HP16) bind to primary agents. These experiments were conducted using dextran-coated CM5 sensor chips and PBS-T buffer at pH 7.4. The ligands were immobilized through a standard EDC/NHS coupling method, and the chip surface was sealed with ethanolamine. A reference surface with no primary agent was also included.
For ranking the off-rate (kd) of the secondary probes, we employed single-cycle kinetics (SCK) at 25 °C with a flow rate of 50 μL/min. […] Secondary PNA probes were injected at various concentrations, and dissociation was monitored for 10,000 s. To regenerate the chip surface, we used two 30 s injections of 10 mM glycine-HCl, pH 1.5.
(§2) All SPR experiments were performed in duplicate, and data analysis was conducted using the Biacore T200 Evaluation software version 2.0 with a 1:1 binding model.
Figure S22: Representative SPR sensorgrams of the dissociation phase of HP16 (9-mer), HP20 (8-mer), HP21 (7-mer) and HP19 […]
After injection with the secondary probe
(120 nM of HP16 and HP20 or 362 nM of HP21 and HP19) the dissociation of the formed complex was followed for 150 minutes. All experiments were done in duplicates, and the data presented is double-referenced (reference channel and buffer injection are subtracted).
(1 picture or pasted object on this page, not shown here)

Data set [4] has as its system Z-HP9. In words: Multicycle kinetic SPR, immobilized Z-HP9. Conditions: MCK SPR. The class given is binding. On the procedure: as §1
Association and dissociation times were set at 700 and 1800 s, respectively, with regeneration accomplished through a 30 s injection of 10 mM glycine-HCl, pH 1.5.
as §2

As for `NC(=O)[C@H](Cc1ccc(O)cc1)NC(=O)[C@H](CCC(=O)O)NC(=O)[C@H](CCC(=O)O)NC(=O)CN(CCNC(=O)CN(CCNC(=O)CN(CCNC(=O)CN(CCNC(=O)CN(CCNC(=O)CN(CCNC(=O)CN(CCNC(=O)CN(CCNC(=O)[C@H](CO)NC(=O)[C@H](CO)NC(=O)COCCOCCNC(=O)CN1CCN(CC(=O)O)CCN(CC(=O)O)CCN(CC(=O)O)CC1)C(=O)Cn1cnc2c(N)ncnc21)C(=O)Cn1ccc(N)nc1=O)C(=O)Cn1cnc2c(N)ncnc21)C(=O)Cn1ccc(N)nc1=O)C(=O)Cn1ccc(N)nc1=O)C(=O)Cn1cnc2c(N)ncnc21)C(=O)Cn1cnc2c(=O)[nH]c(N)nc21)C(=O)Cn1cnc2c(=O)[nH]c(N)nc21` [[^177Lu]Lu-HP20, metal not drawn], in data set [1], the “stability (×500 EDTA), 37 °C, 1 h” value is reported as 99.5 ± 0.7 and the “stability in PBS, 37 °C, 1 h” value worked out at 100 ± 0.
Consider `NC(=O)[C@H](Cc1ccc(O)cc1)NC(=O)[C@H](CCC(=O)O)NC(=O)[C@H](CCC(=O)O)NC(=O)CN(CCNC(=O)CN(CCNC(=O)CN(CCNC(=O)CN(CCNC(=O)CN(CCNC(=O)CN(CCNC(=O)CN(CCNC(=O)CN(CCNC(=O)CN(CCNC(=O)[C@H](CO)NC(=O)[C@H](CO)NC(=O)COCCOCCNC(=O)CN1CCN(CC(=O)O)CCN(CC(=O)O)CCN(CC(=O)O)CC1)C(=O)Cn1cnc2c(N)ncnc21)C(=O)Cn1cnc2c(N)ncnc21)C(=O)Cn1ccc(N)nc1=O)C(=O)Cn1cnc2c(N)ncnc21)C(=O)Cn1ccc(N)nc1=O)C(=O)Cn1ccc(N)nc1=O)C(=O)Cn1cnc2c(N)ncnc21)C(=O)Cn1cnc2c(=O)[nH]c(N)nc21)C(=O)Cn1cnc2c(=O)[nH]c(N)nc21` [[^177Lu]Lu-HP16, metal not drawn], for which, in data set [2], the “stability (×500 EDTA), 37 °C, 1 h” value is given as 100 ± 0 ^a and the “stability in PBS, 37 °C, 1 h” value is 100 ± 0 ^a.
Regarding “DOTA-AEEA-SS-aacaccagg-EEY-NH2 [HP16, 9-mer secondary PNA probe with DOTA]”, the kd in data set [3] is given as 1.2 × 10^–5 s^–1; in data set [4] (primary probe HP9, 25 °C), 4.8 × 10^–5 s^–1; in data set [4] (primary probe HP9, 37 °C), 1.1 × 10^–4 s^–1. The ka in data set [4] (primary probe HP9 (Z-HP9 immobilized), 25 °C, 1.4-70 nM, 1:1 model, duplicates) is given as 1.8 × 10^5 M^–1 s^–1; in data set [4] (primary probe HP9, 37 °C), 2.9 × 10^5 M^–1 s^–1. Also, the dissociation constant (Kd) in data set [4] (primary probe HP9, 25 °C) came to 0.27 nM; in data set [4] (primary probe HP9, 37 °C) it was 0.39 nM.
